In test [1] the target is T1, human recombinant adrenergic α2A receptor (Homo sapiens, UniProt P08913).
T1 construct: expressed in transfected cells; host or cells: insect Sf9 cells
T1 sequence (P08913 1-465): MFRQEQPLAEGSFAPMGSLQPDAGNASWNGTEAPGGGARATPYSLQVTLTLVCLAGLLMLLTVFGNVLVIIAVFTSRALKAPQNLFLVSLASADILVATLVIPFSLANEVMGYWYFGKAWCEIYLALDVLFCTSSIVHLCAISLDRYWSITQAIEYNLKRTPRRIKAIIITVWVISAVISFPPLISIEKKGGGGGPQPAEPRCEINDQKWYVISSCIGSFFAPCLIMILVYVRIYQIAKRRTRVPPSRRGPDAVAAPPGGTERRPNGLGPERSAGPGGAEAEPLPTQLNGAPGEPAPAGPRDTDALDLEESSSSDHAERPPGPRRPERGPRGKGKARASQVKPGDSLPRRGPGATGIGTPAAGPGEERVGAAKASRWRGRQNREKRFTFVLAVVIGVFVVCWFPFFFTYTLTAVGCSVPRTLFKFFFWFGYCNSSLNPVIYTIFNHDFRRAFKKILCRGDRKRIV
As to the kind of experiment: Adrenergic α2A radioligand binding ([3H]MK-912). An outline of the steps:
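Human α2A receptor expressed in Sf9 cells, in Tris-HCl pH 7.4 with 12.5 mM MgCl2 and 2 mM EDTA; 1 nM [3H]MK-912, 60 min at 25 °C. Non-specific binding defined with 10 μM WB-4101; filter counting.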

Test [2] addresses T2, human recombinant adrenergic α1D receptor (Homo sapiens, UniProt P25100).
T2 construct: expressed in transfected cells; host or cells: HEK-293 cells
T2 sequence (P25100 1-572): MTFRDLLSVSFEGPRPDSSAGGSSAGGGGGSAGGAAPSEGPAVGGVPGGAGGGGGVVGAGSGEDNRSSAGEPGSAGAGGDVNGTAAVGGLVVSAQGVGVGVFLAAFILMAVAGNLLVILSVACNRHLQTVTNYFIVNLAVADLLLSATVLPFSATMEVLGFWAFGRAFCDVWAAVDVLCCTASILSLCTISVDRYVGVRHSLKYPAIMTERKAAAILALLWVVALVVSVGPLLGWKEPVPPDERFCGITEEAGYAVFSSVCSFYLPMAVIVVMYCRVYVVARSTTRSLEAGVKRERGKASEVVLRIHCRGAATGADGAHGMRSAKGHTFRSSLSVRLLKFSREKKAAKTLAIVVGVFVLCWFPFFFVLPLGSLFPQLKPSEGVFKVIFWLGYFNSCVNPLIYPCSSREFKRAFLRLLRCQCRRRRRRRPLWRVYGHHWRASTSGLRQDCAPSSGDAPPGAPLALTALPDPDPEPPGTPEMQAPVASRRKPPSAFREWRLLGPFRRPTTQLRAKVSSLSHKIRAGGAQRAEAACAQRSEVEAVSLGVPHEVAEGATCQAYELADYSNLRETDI
As to the kind of experiment: Adrenergic α1D radioligand binding ([3H]Prozosin). An outline of the steps: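 Membranes from HEK-293 cells expressing recombinant α1D receptor, in 50 mM Tris-HCl pH 7.4, incubated with 0.6 nM [3H]prazosin for 60 min at 25 °C; non-specific binding defined with 10 μM phentolamine. Filtration and counting.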

The target of test [3] is T3, human recombinant serotonin (5-Hydroxytryptamine) 5-HT2C receptor (Homo sapiens, UniProt P28335).
T3 construct: expressed in transfected cells; host or cells: CHO-K1 cells
T3 sequence (P28335 33-458): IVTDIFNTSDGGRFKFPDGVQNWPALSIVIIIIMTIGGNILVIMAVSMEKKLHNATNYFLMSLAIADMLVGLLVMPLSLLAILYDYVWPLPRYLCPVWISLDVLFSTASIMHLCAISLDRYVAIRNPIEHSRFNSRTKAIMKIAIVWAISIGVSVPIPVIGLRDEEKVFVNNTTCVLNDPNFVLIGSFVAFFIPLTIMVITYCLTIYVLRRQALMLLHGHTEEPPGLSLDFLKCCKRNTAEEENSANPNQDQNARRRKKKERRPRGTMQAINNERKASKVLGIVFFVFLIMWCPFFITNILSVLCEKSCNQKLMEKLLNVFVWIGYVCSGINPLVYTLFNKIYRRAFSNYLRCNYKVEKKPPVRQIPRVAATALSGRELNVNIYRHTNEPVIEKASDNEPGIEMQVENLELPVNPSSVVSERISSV
As to the kind of experiment: Serotonin 5-HT2C radioligand binding ([3H]Mesulergine). As to the method: Compounds of the invention were incubated with 1 nM [^3H]Mesulergine for 60 minutes at 25° C. Non-specific binding was estimated in the presence of 1 μM Mianserin. Receptor proteins were filtered and washed, the filters were then counted to determine [^3H]Mesulergine specifically bound. […] Biochemical assay results are presented as the percent inhibition of specific binding in Table 5.

Where [4] appears, read: 1 h, read-out: Percent Inhibition of ligand binding Adrenergic (1 μM ligand conc.) α2A.
The mark [5] stands for this setting: 1 h, read-out: Percent Inhibition of ligand binding Adrenergic (1 μM ligand conc.) α1D.
Where [6] appears, read: 1 h, read-out: Percent Inhibition of ligand binding Serotonin (1 μM ligand concentration) 5-HT2C.

Each structure is given as a SMILES string. Read-outs that look alike come from different tables or passages of the source.

On to `C/C(=C\n1c2c(c3cc(Cl)ccc31)CCN(C)C2)c1ccc(Cl)cc1` [Compound 98, 6-chloro-9-(2-(4-chlorophenyl)prop-1-enyl)-2-methyl-2,3,4,9-tetrahydro-1H-pyrido[3,4-b]indole], for which the inhibition at 1 µM in test [1] (setting [4]) came out at 74%; in test [2] (setting [5]), 57%; in test [3] (setting [6]) it was 103%.
Turning to `C/C(=C\n1c2c(c3cc(Cl)ccc31)CCN(C)C2)c1ccc(F)cc1` [Compound 90, (E)-6-chloro-9-(2-(4-fluorophenyl)prop-1-enyl)-2-methyl-2,3,4,9-tetrahydro-1H-pyrido[3,4-b]indole], the inhibition at 1 µM in test [1] (setting [4]) is 88%; in test [1] (compound concentration 1 μM, read-out: Percentage inhibition of ligand binding to Adrenergic α2A receptor) it was 88%; in test [2] (setting [5]) it was 62%; in test [2] (compound concentration 1 μM, read-out: Percentage inhibition of ligand binding to Adrenergic α1D receptor), 62%; in test [3] (setting [6]), 99%; in test [3] (compound concentration 1 μM, read-out: Percentage inhibition of ligand binding to 5-HT2C receptor), 99%. Besides, the inhibition at 0.003 µM in test [3] (compound concentration 3 nM, read-out: Percentage inhibition of ligand binding to 5-HT2C receptor) came out at 22%. Also, in test [3] (compound concentration 10 nM, read-out: Percentage inhibition of ligand binding to 5-HT2C receptor), the inhibition at 0.01 µM came to 37%. Moreover, the inhibition at 0.03 µM in test [3] (compound concentration 0.03 μM, read-out: Percentage inhibition of ligand binding to 5-HT2C receptor) amounted to 65%. In test [3] (compound concentration 0.1 μM, read-out: Percentage inhibition of ligand binding to 5-HT2C receptor), the inhibition at 0.1 µM is 82%. In test [3] (compound concentration 0.3 μM, read-out: Percentage inhibition of ligand binding to 5-HT2C receptor), the inhibition at 0.3 µM is 93%.
Consider `Cc1ccc2c(c1)c1c(n2CC(C)(O)c2ccc(F)cc2)CN(C)CC1` (centres unmarked) [Compound 61, 1-(2,6-dimethyl-3,4-dihydro-1H-pyrido[3,4-b]indol-9(2H)-yl)-2-(4-fluorophenyl)propan-2-ol], for which the inhibition at 1 µM in test [1] (setting [4]) was 83%; in test [2] (setting [5]), 49%; in test [3] (setting [6]) it was 81%.
With `CN1CCc2c(n(CCN3CCCCC3)c3ccc(Cl)cc23)C1` [Compound 34, 6-chloro-2,3,4,9-tetrahydro-2-methyl-9-(2-(piperidin-1-yl)ethyl)-1H-pyrido[3,4-b]indole], the results for the inhibition at 1 µM in test [1] (setting [4]), in test [2] (setting [5]) and in test [3] (setting [6]) were 66%, 56% and 37%, respectively.
Taken in the same sequence, the figures for `CN1CCc2c(n(CC(=O)N3CCCCC3)c3ccc(Cl)cc23)C1` [Compound 58, 2-(6-chloro-2-methyl-3,4-dihydro-1H-pyrido[3,4-b]indol-9(2H)-yl)-1-(piperidin-1-yl)ethanone] were -12%, 19% and 30%.
For `Cc1ccc2c(c1)c1c(n2CCC2CCCCC2)CN(C)CC1` [Compound 2, 9-(2-cyclohexylethyl)-2,3,4,9-tetrahydro-2,6-dimethyl-1H-pyrido[3,4-b]indole], the inhibition at 1 µM in test [1] (setting [4]) amounted to 81%; in test [2] (setting [5]) it was 42%; in test [3] (setting [6]) it was 84%.
Taken in the same sequence, the figures for `C/C(=C\n1c2c(c3cc(C)ccc31)CCN(C)C2c1ccccc1)c1ccc(Cl)cc1` (centres unmarked) [Compound 164, 9-(2-(4-chlorophenyl)prop-1-enyl)-2,6-dimethyl-1-phenyl-2,3,4,9-tetrahydro-1H-pyrido[3,4-b]indole] were 58%, 10% and 98%.
Taken in the same sequence, the figures for `Cc1ccc2c(c1)c1c(n2CC(O)c2ccccc2F)CN(C)CC1` (centres unmarked) [Compound 60, 2-(2,6-dimethyl-3,4-dihydro-1H-pyrido[3,4-b]indol-9(2H)-yl)-1-(2-fluorophenyl)ethanol] were 79%, 29% and 5%.

Source of the values: US9260429B2, “Pyrido[3,4-B]indoles and methods of use” (Medivation Technologies, Inc., priority 2008, dated 2016).
